Reference: patent US20070185138A1, “Imidazolopyrimidines used as fungicidal active ingredients” (priority 2004, published 2007)

Key:
[1] = logP determination by HPLC (EEC Directive 79/831 Annex V. A8); assay type: physicochemical; conditions: HPLC gradient method, acetonitrile/0.1% aqueous phosphoric acid
Description: The logP values were determined in accordance with EEC Directive 79/831 Annex V. A8 by HPLC (gradient method, acetonitrile/0.1% aqueous phosphoric acid).

[2] = test system: Botrytis cinerea; assay: Botrytis test (cucumber)/protective; assay type: in vivo; conditions: young cucumber plants, protective spray, application rate 750 g/ha, evaluation 5-6 days after inoculation
Description: • Botrytis test (cucumber)/protective • Solvent: 49 parts by weight of N,N-dimethylformamide • Emulsifier: 1 part by weight of alkylaryl polyglycol ether
To produce a suitable preparation of active compound, 1 part by weight of active compound is mixed with the stated amounts of solvent and emulsifier, and the concentrate is diluted with water to the desired concentration.
To test for protective activity, young cucumber plants are sprayed with the preparation of active compound at the stated application rate. One day aft er the treatment, the plants are inoculated with a spore suspension of Botrytis cinerea and then remain at 100% relative hunmdity and 20° C. for 48 h. The plants then remain at 96% relative atmospheric-humidity and a temperature of 10° C.
Evaluation is carried out 5-6 days after the inoculation. 0% means an efficacy which corresponds to that of the control, whereas an efficacy of 100% means that no infection is observed.

Structure (SMILES) | logP [1] | efficacy [2] [%]
C[Si](C)(C)CNc1nc2nccn2c(Cl)c1-c1c(F)cc(F)cc1F [Example 1, 5-chloro-6-(2,4,6-trifluorophenyl-)-7-trimethylsilylmethylaminoimidazo[1,2-a]pyrimidine] | 2.09 | 
CC(Nc1nc2nccn2c(Cl)c1-c1c(F)cc(F)cc1F)[Si](C)(C)C (stereo not drawn) [Example 2, 5-chloro-6-(2,4,6-trifloropheny)-7-(1-trimethylsilylethylamino)imidazo[1,2-a]pyrimidine] | 2.18 | > 80
